Source: PMC10575921 (Nature Communications, 2023)
pEC50, pIC50: −log10 of the molar value. Values joined by “and” are separate entries in the source; they are usually repeats but may differ in a detail not shown here. Identical values can stand only once. Like-named read-outs stand apart in the source and are kept apart here.

Experiments:
[1] = tested on: SARS-CoV-2 Delta strain; assay: microbe, parasite or virus in culture; assay type: cell-based; conditions: for EC50: Severe acute respiratory syndrome coronavirus 2, Vero C1008, read-out: EC50 (nM) Mean
[2] = in vitro; conditions: African green monkey
[3] = biological target: SARS-CoV-2 3CL^pro (Severe acute respiratory syndrome coronavirus 2, UniProt P0DTD1); assay: biochemical; conditions: for pIC50: IC50; for IC50: IC50 (nM)
[4] = tested on: human primary hepatocytes; conditions: primary hepatocyte cytotoxicity
[5] = 500.00 nM, read-out: inhibition ratio (%)

`CC(C)(C)[C@H](NC(=O)C(F)(F)F)C(=O)N1C[C@H]2[C@@H]([C@H]1C(=O)N[C@H](C#N)C[C@@H]1CCNC1=O)C2(C)C` [nirmatrelvir, reference compound] gave a pEC50 ([1]; read-out: EC50^CP) of 7.52.
For `CC(C)(C)[C@H](NS(C)(=O)=O)C(=O)N1CC2(C[C@H]1C(=O)N[C@H](C#N)C[C@@H]1CCNC1=O)SCCS2` [compound 11], the CC50 [2] was > 500 µM, the inhibition at 0.01563 µM ([3]; 15.63 nM, read-out: inhibition ratio (%)) was 54% and the inhibition at 0.03125 µM ([3]; 31.25 nM, read-out: inhibition ratio (%)) was 73.9%. For the same compound, the inhibition at 0.5 µM [3, 5] was 94.6% and the EC50 [1] was 10400 nM.
With `CC(C)(C)NC(=O)N[C@H](C(=O)N1C[C@H]2[C@@H]([C@H]1C(=O)NC(CC1CCC1)C(=O)C(N)=O)C2(C)C)C(C)(C)C` (stereo partly drawn) [boceprevir, reference compound] the inhibition at 50 µM ([3]; 50000.00 nM, read-out: inhibition ratio (%)) was 90.9%, the inhibition at 100 µM ([3]; 100000.00 nM, read-out: inhibition ratio (%)) was 97.1% and the inhibition at 25 µM ([3]; […], read-out: inhibition ratio (%)) was 82.4%.
For `CC(C)(C)NC(=O)N[C@H](C(=O)N1C[C@@H](Sc2ccccc2)C[C@H]1C(=O)N[C@H](C#N)C[C@@H]1CCNC1=O)C(C)(C)C` [compound 6], the pIC50 [3] was 5.14, the IC50 [3] was 6060 nM and 8400 nM and 7190 nM and the inhibition at 3.125 µM ([3]; concentration 3125.00 nM, read-out: inhibition ratio (%)) was 22.4%. The inhibition at 50 µM ([3]; concentration 50000.00 nM, read-out: inhibition ratio (%)) was 90.5%, the inhibition at 100 µM ([3]; concentration 100000.00 nM, read-out: inhibition ratio (%)) was 97.7% and the inhibition at 25 µM ([3]; concentration […], read-out: inhibition ratio (%)) was 81.8%.
With `CC(C)(C)[C@H](NC(=O)C1(F)CC1)C(=O)N1CC2(C[C@H]1C(=O)N[C@H](C#N)C[C@@H]1CCNC1=O)SCCS2` [compound 10] the CC50 [2] was > 500 µM, the inhibition at 0.5 µM [3, 5] was 94% and the EC50 [1] was 1100 nM.
In the case of `CC/C(=C(\c1ccccc1)c1ccc(OCCN(C)C)cc1)c1ccccc1` [Tamoxifen], the “% of vehicle control” value ([4]; 0.206 μM) was 109.51%, the “% of vehicle control” value ([4]; 5.56 μM) was 81.38% and 83.81% and 90.39% and the “% of vehicle control” value ([4]; 16.67 μM) was 0.08% and 0.0644% and 0.0757%. For the same compound, the “% of vehicle control” value ([4]; 50 μM) was 0.06% and 0.05% and the “% of vehicle control” value ([4]; 150 μM) was 0.0474% and 0.03% and 0.04%.
With `CC(C)(C)NC(=O)N[C@H](C(=O)N1C[C@@H]2CCC[C@@H]2[C@H]1C(=O)N[C@H](C#N)C[C@@H]1CCNC1=O)C(C)(C)C` [compound 8] the pIC50 [3] was 7.30, the IC50 [3] was 49.2 nM and 55.8 nM and 45.8 nM and the inhibition at 0.03125 µM ([3]; concentration 31.25 nM, read-out: inhibition ratio (%)) was 37.9%. The inhibition at 0.5 µM ([3]; concentration 500.00 nM, read-out: inhibition ratio (%)) was 93.2%.
